Measured values taken from patent US20240207403A1, “PERSONALIZED IMMUNOTHERAPY USING INTESTINAL METABOLITES” (Evolve Biosystems, Inc., priority 2021, published 2024).

How the values were obtained:
[1] = tested on: naïve CD4+ T-cells; test: In vitro polarization of naïve CD4+ T-cells with fecal water, ILA or IFNβ, read out by targeted sc-mRNA-seq; assay type: cell-based, human; conditions: for LGALS1 (Galectin-1) in Th0, Th2 and Th17 cells: ILA alone (1 mM) during polarization
Protocol: To evaluate the cellular states of polarized T-cells, the inventors applied a targeted multiomics approach quantifying 259 mRNA molecules with known functions in T-cells and 10 surface proteins detected by oligo-coupled antibodies (Abseq™, Rhapsody™, BD Biosciences) (Mair et al., 2020).
T-cell polarization experiments. PBMC derived CD3 CD4 CD45RA″ naïve T-cells (CD8/14/19/56 negative) into an enriched culture medium including RPMI 1640+10% FBS+NEAA+1% Pen-strep+55 μM β-mercaptoethanol. Cells are added at a concentration of 2×10^5 cells/ml and pre-washed and resuspended 2.5 ml T-Activator Dynabeads are added to obtain a bead:cell ratio of 1:2. One milliliter of bead/cell suspension was added to 24-well plate and the following polarizing supplements Th0: No cytokines, Th1: IL-12 (50 nanogram (ng)/ml), Anti-human IL-4 antibody (1 μg/ml) Th2: IL-4 (10 ng/ml), Anti-human IFN-γ antibody (1 μg/ml), Th17: IL-6 (50 ng/ml), IL-23 (20 ng/ml), IL-1B (10 ng/ml), TGF-β1 (5 ng/ml), Anti-hum IL-4 (1 μg/ml), Anti-human IFN-γ antibody (1 μg/ml), iTreg: TGF-β1 (5 ng/ml), IL-2 (10 ng/ml) IFN-β: IFN-β (10 ng/ml). Cells are incubated at 37 °C, 5% CO2 humidified incubator for 5 days and harvested.
Targeted transcriptome and protein by BD Rhapsody single cell RNA Sequencing. Polarized T cells in each condition were labeled using BD Single-Cell Multiplexing Kit and BD AbSeq Ab-Oligos reagents strictly following the manufacturers protocol (BD Biosciences). Briefly, cells from each experiment condition were labelled with each sample tag and pooled 18 AbSeqAb-Oligos. Each sample was then washed twice, counted and resuspended in cold BD SampleBuffer, then calculated the cell number in each sample, then pooled the required number of cells from each sample to get approximately 20,000 cells in 620 μl for each cartridge (around 9 samples for each cartridge). After priming the nanowell cartridges, the pooled sample was loaded onto BDRhapsody cartridges and incubated at room temperature. Cell Capture Beads were prepared and then loaded onto the cartridge. According to the manufacturers protocol, cartridges were washed, cells were lysed, and Cell Capture Beads were retrieved and washed prior to performing reverse transcription and treatment with Exonuclease I. cDNA Libraries were prepared using mRNA Targeted, Sample Tag, and BD AbSeq Library Preparation with the BD Rhapsody Targeted mRNA and AbSeq Amplification Kits and protocol. […] Quality and quantity of PCR products were determined by using an Agilent 2100 Bioanalyzer and Qubit Fluorometer using the Qubit dsDNA HS Kit (ThermoFisher). […] Quality of final libraries was assessed by using Agilent Bioanalyzer and quantified using a Qubit Fluorometer. […]

[2] = tested on: Aryl hydrocarbon Receptor (AhR); conditions: bifidobacteria-derived ILA; cited from earlier work
[3] = molecular target: hydrocarboxylic acid receptor 3 (HCAR3) (Homo sapiens, UniProt P49019); conditions: bifidobacteria-derived ILA; cited from earlier work
[4] = ILA alone (1 mM) instead of fecal water

Chain of hydrocarboxylic acid receptor 3 (HCAR3) (P49019 whole entry): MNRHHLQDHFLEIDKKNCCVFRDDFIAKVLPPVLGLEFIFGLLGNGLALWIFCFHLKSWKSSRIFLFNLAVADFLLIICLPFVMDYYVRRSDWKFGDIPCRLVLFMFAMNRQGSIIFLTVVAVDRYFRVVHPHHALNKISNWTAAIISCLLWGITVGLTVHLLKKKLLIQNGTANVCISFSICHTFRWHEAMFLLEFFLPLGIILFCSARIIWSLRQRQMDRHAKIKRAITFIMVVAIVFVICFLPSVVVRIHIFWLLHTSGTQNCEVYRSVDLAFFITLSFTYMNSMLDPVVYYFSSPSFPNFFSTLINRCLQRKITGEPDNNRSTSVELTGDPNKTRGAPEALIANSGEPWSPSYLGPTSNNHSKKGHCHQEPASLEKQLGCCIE

SMILES: O=C(O)C(O)Cc1c[nH]c2ccccc12 (stereo not drawn) [ILA, Indole-3-lactic acid]
- LGALS1 (Galectin-1) in Th0, Th2 and Th17 cells [1]: strongly upregulated
- LGALS1 (Galectin-1) in Th0, Th2 and Th17 cells ([1]; listed as indole-3-lactic acid): upregulated
- CXCR3 mRNA in Th0, Th2 and Th17 cells [1, 4]: upregulated
- granzyme B mRNA in Th0, Th2 and Th17 cells [1, 4]: upregulated
- binding to AhR [2]: bind
- binding to HCAR3 [3]: bind
